Assays:
C57BL/6JJcl mice = test: Oral Glucose Tolerance Test (OGTT); format: in vivo
Procedure: After 30 minutes, a glucose solution was orally administered at a dose of 1 mg/g. Blood was collected from the orbits before the glucose administration and 30 minutes, 60 minutes and 120 minutes after the glucose administration. Blood-sugar levels were measured using ACCU-CHEK Aviva (Roche Diagnostics). In the drawings below, for example, “26,34Cys GLP-1-disialo”, which is an oligosaccharide chain added GLP-1 peptide wherein amino acids at positions 26 and 34 of GLP-1 are each substituted with disialo oligosaccharide chain added Cys, is referred to as “C26,C34”, if necessary. The same holds true for other oligosaccharide chains and amino acid sites.
Next, 18,36Cys GLP-1-disialo and GLP-1 were evaluated by OGTT using doses of 1/10 (0.9 nmol/kg) and 9 nmol/kg, respectively, and compared.

[1] = target: T1, DPP-IV (dipeptidyl peptidase IV from porcine kidney) (Sus scrofa, UniProt P22411); test: Test of resistance to dipeptidyl peptidase IV (DPP-IV); format: in vitro ADME; conditions: half-life (t1/2) in DPP-IV solution at 37° C., GLP-1 of Comparative Example 1 defined as standard (=1)
T1 construct: dipeptidyl peptidase IV from porcine kidney, product of SIGMA; purchased SIGMA; host or cells: porcine kidney (tissue-derived enzyme)
Procedure: Each solution mixture was adjusted with 100 mM sodium phosphate buffer to 100 μl in total and allowed to react at 37° C. A 10 μaliquot of the reaction solution was mixed with 15 μl of 10% trifluoroacetic acid prepared in advance in another Eppendorf tube.

T1 sequence (P22411 whole entry): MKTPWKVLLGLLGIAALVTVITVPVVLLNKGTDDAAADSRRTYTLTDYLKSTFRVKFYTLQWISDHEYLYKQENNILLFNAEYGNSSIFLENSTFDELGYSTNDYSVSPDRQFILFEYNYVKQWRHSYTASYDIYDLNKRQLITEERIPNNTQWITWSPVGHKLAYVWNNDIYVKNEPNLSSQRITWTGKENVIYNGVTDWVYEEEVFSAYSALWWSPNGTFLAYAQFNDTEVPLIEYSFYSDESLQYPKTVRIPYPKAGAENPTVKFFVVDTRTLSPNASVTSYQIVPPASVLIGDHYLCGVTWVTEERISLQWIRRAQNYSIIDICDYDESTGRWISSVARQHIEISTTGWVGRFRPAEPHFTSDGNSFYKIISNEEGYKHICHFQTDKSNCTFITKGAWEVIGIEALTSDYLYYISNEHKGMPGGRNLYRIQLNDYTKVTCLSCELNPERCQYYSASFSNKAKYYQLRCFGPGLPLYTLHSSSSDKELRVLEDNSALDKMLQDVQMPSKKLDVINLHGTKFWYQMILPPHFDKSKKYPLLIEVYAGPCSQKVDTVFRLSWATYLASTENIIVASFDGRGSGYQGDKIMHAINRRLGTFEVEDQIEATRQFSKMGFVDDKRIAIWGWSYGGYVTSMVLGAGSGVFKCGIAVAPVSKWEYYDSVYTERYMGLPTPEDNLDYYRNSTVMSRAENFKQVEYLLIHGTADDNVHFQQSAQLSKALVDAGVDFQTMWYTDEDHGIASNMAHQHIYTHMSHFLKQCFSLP

CC[C@H](C)[C@H](NC(=O)[C@H](Cc1ccccc1)NC(=O)[C@H](CCC(=O)O)NC(=O)[C@H](CCCCN)NC(=O)[C@H](C)NC(=O)[C@H](C)NC(=O)[C@H](CCC(N)=O)NC(=O)CNC(=O)[C@H](CCC(=O)O)NC(=O)[C@H](CC(C)C)NC(=O)[C@H](Cc1ccc(O)cc1)NC(=O)[C@H](CSCC(=O)N[C@@H]1O[C@H](CO)[C@@H](O[C@@H]2O[C@H](CO)[C@@H](O[C@@H]3O[C@H](CO[C@H]4O[C@H](CO)[C@@H](O)[C@H](O)[C@@H]4O[C@@H]4O[C@H](CO)[C@@H](O[C@@H]5O[C@H](CO[C@]6(C(=O)O)C[C@H](O)[C@@H](NC(C)=O)[C@H]([C@H](O)[C@H](O)CO)O6)[C@H](O)[C@H](O)[C@H]5O)[C@H](O)[C@H]4NC(C)=O)[C@@H](O)[C@H](O[C@H]4O[C@H](CO)[C@@H](O)[C@H](O)[C@@H]4O[C@@H]4O[C@H](CO)[C@@H](O[C@@H]5O[C@H](CO[C@]6(C(=O)O)C[C@H](O)[C@@H](NC(C)=O)[C@H]([C@H](O)[C@H](O)CO)O6)[C@H](O)[C@H](O)[C@H]5O)[C@H](O)[C@H]4NC(C)=O)[C@@H]3O)[C@H](O)[C@H]2NC(C)=O)[C@H](O)[C@H]1NC(C)=O)NC(=O)[C@H](CO)NC(=O)[C@@H](NC(=O)[C@H](CC(=O)O)NC(=O)[C@H](CO)NC(=O)[C@@H](NC(=O)[C@H](Cc1ccccc1)NC(=O)[C@@H](NC(=O)CNC(=O)[C@H](CCC(=O)O)NC(=O)[C@H](C)NC(=O)[C@@H](N)Cc1c[nH]cn1)[C@@H](C)O)[C@@H](C)O)C(C)C)C(=O)N[C@@H](C)C(=O)N[C@@H](Cc1c[nH]c2ccccc12)C(=O)N[C@@H](CC(C)C)C(=O)N[C@H](C(=O)N[C@@H](CCCCN)C(=O)NCC(=O)N[C@@H](CSCC(=O)N[C@@H]1O[C@H](CO)[C@@H](O[C@@H]2O[C@H](CO)[C@@H](O[C@@H]3O[C@H](CO[C@H]4O[C@H](CO)[C@@H](O)[C@H](O)[C@@H]4O[C@@H]4O[C@H](CO)[C@@H](O[C@@H]5O[C@H](CO[C@]6(C(=O)O)C[C@H](O)[C@@H](NC(C)=O)[C@H]([C@H](O)[C@H](O)CO)O6)[C@H](O)[C@H](O)[C@H]5O)[C@H](O)[C@H]4NC(C)=O)[C@@H](O)[C@H](O[C@H]4O[C@H](CO)[C@@H](O)[C@H](O)[C@@H]4O[C@@H]4O[C@H](CO)[C@@H](O[C@@H]5O[C@H](CO[C@]6(C(=O)O)C[C@H](O)[C@@H](NC(C)=O)[C@H]([C@H](O)[C@H](O)CO)O6)[C@H](O)[C@H](O)[C@H]5O)[C@H](O)[C@H]4NC(C)=O)[C@@H]3O)[C@H](O)[C@H]2NC(C)=O)[C@H](O)[C@H]1NC(C)=O)C(=O)NCC(=O)O)C(C)C [Example 2, 18 and 36Cys-disialo oligosaccharide Chain Added GLP-1]
effect of suppressing rise in blood-sugar levels (C57BL/6JJcl mice; 0.9 nmol/kg intraperitoneal, compared with GLP-1 at 9 nmol/kg, FIG. 5): almost equal effect of suppressing rise in blood-sugar levels to that of GLP-1 | effect of suppressing rise in blood-sugar levels relative to that of GLP-1 (C57BL/6JJcl mice; OGTT, from doses giving almost equal effect (0.9 vs 9 nmol/kg)): about 10 times | Relative Resistance [1]: 128.6

From patent publication US8765669B2, “Glycosylated GLP-1 peptide” (Glytech, Inc., priority 2008, dated 2014)
